Test results from patent publication US4169953A (priority 1977, dated 1979).
Values after ≈ are worked out from the molar mass of the structure shown. Counter-ions that a name gives are not always drawn.

Columns and labels:
in vitro = details: chicken, chick embryo fibroblasts
Newcastle disease virus = experiment: microbe, parasite or virus in culture; assay type: cell-based; details: avian paramyxovirus 1, in Gallus gallus

Row | SMILES | MCC (in vitro) | MIC (Newcastle disease virus)
1 | O=C(OC1CCCC1)C12CCCC(C1)C1CCC2C1 (centres unmarked) | 200 µg/mL | 40 µg/mL (≈ 152 µM)
2 | O=C(OC1CCCCC1)C12CCCC(C1)C1CCC2C1 (centres unmarked) | 200 µg/mL | 200 µg/mL (≈ 724 µM)
3 | O=C(OC1CC2CC1C1CCCC21)C12CCCC(C1)C1CCC2C1 (centres unmarked) | 1000 µg/mL | 200 µg/mL (≈ 609 µM)
4 | COC(=O)C12CCCC(C1)C1CCC2C1 (centres unmarked) [CH3] | 200 µg/mL | 200 µg/mL (≈ 960 µM)
5 | NC12CC3CC(CC(C3)C1)C2 [adamantylamine hydrochloride, reference compound] | 250 µg/mL | 250 µg/mL
6 | CCCCOC(=O)C12CCCC(C1)C1CCC2C1 (centres unmarked) [n-C4 H9] | 200 µg/mL | 40 µg/mL (≈ 160 µM)
7 | CCCCCCCCOC(=O)C12CCCC(C1)C1CCC2C1 (centres unmarked) [n-C8 H17] | 1000 µg/mL | 200 µg/mL (≈ 653 µM)
